In patent publication US10434111B2, “Compositions and methods for modification of biomolecules” (THE REGENTS OF THE UNIVERSITY OF CALIFORNIA, priority 2004, dated 2019):

Tests used:
[1] = Stability of cyclooctyne 3 to acid, base and biological nucleophiles; format: physicochemical
Procedure: [drawing 31] by Reese and Shaw. Reese and Shaw (1970) Chem. Comm. 1172-1173. Briefly, compound 1 (Skattebol and Solomon, supra) was treated with silver perchlorate to effect electrocyclic ring opening to the trans-allylic cation, which was captured with methyl hydroxymethylbenzoate to afford bromo-trans-cyclooctene 2. Base-mediated elimination of the vinyl bromide followed by saponification yielded versatile intermediate 3, to which any biological probe can be attached. Finally, compound 3 was coupled to biotin analog 4 (Wilbur et al. (1996) Bioconj. Chem. 7:689-702) bearing a PEG linker, providing target 5. Cyclooctyne 3 was stable to mild acid (0.5 N HCl for 30 min), base (0.8 M NaOMe for 30 min), and prolonged exposure to biological nucleophiles such as thiols (120 mM 2-mercaptoethanol for 12 h).

[2] = Kinetic evaluation of [3+2] cycloaddition of cyclooctyne probes with benzyl azide (1H NMR); format: physicochemical; settings: PhCH2N3, CD3CN, 22° C.
Procedure: (§1) Stock solutions of cyclooctynes 3a and 3b (50 mM), benzyl azide (500 mM) and 2-azidoethanol (500 mM) were made in either CD3CN or a 55:45 mixture of CD3CN and deuterated Dulbecco's phosphate-buffered saline (pH 7.4, made with D2O). Gentle heating and/or sonication in a H2O bath was required to fully dissolve 3a and 3b. An NMR tube was charged with 450 μL of either 3a or 3b, and 50 μL of either benzyl azide or 2-azidoethanol, and the reaction was monitored over time using ^1H NMR spectroscopy.
(§2) In the case of the reactions of 3a and 3b with benzyl azide, the kinetic data were derived by monitoring the change in integration of resonances corresponding to the benzylic protons in benzyl azide (δ˜4.2 ppm) compared to the corresponding resonances of the triazole products (δ ˜5.0 to 5.5 ppm). […]
(§3) Second-order rate constants for the reaction were determined by plotting 1/[benzyl azide] versus time in the case of the reactions of 3a and 3b with benzyl azide and by plotting 1/[3a] versus time or 1/[3b] versus time in the case of the reactions of 3a and 3b with 2-azidoethanol, and subsequent analysis by linear regression. Second-order rate constants correspond to one half of the determined slope (Table 1). […]

[3] = Kinetic evaluation of [3+2] cycloaddition of cyclooctyne probes with 2-azidoethanol (1H NMR); format: physicochemical; settings: HOCH2CH2N3, CD3CN/PBS (55:45), 22° C.
Procedure: as §1, §2, §3

[4] = test system: Jurkat cells; experiment: Cell surface azide labeling and detection, Jurkat cells, FITC-avidin flow cytometry; format: cell-based, human
Procedure: Jurkat cells were seeded at a density of 1.5-2.0×10^5 cells/mL and incubated for 3 d in untreated media or media containing various concentrations of Ac4ManNAz. […] Cells were then incubated with 5 or a biotinylated phosphine probe (Vocadlo et al. (2003) Proc. Natl. Acad. Sci. U.S.A. 100:9116-21) in labeling buffer containing 2.8% DMF or labeling buffer plus 2.8% DMF alone. […] Following a 10-min incubation on ice (in the dark), cells were washed with 200 μL of cold labeling buffer and the FITC-avidin staining procedure was repeated.
FIGS. 3A and 3B. Cell surface labeling with compound 5. Jurkat cells were incubated in the presence (+Az) or absence (−Az) of 25 μM Ac4ManNAz for 3 d. FIG. 3A. The cells were reacted with various concentrations of 5 for 1 h at rt and treated with FITC-avidin; mean fluorescence intensity (MFI) was determined by flow cytometry. FIG. 3B. The cells were incubated with 250 μM 5 for various durations at rt and analyzed as in A. C. The cells were incubated with 100 μM probe for 1 h at rt and analyzed as in A. Error bars represent the standard deviation from three replicates. AU=arbitrary fluorescence units.

[5] = biological target: T1, azide-labeled GlyCAM-Ig (Mus musculus, UniProt Q02596); experiment: Western blot analysis of azide-labeled GlyCAM-Ig; format: biochemical; settings: for labeling (biotinylation) of GlyCAM-Ig modified with SiaNAz: 250 μM probe alone, overnight at rt, no copper catalysis
T1 construct: made in house; host or cells: CHO cells grown with Ac4ManNAz
T1 sequence (Q02596 20-151): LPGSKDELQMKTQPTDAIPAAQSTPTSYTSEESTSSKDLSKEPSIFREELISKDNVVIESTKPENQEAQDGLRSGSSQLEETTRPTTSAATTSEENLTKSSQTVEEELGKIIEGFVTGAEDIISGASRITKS
Procedure: For Western blot analysis of azide-labeled and unlabeled GlyCAM-Ig, samples were incubated with 5 (250 μM final concentration in PBS, pH 7.4 containing 0.7% DMF), 6 (250 μM final concentration in PBS, pH 7.4 containing either 0.7% DMF) or left untreated for 12 h. To verify that 6 could react with azide-labeled GlyCAM-Ig via copper-mediated [3+2] cycloaddition, a modified version of the method reported by Speers and Cravatt was employed. Speers and Cravatt (2004) Chem. Biol. 11:535-46. Briefly, GlyCAM-Ig samples (in PBS, pH 7.4 containing 0.7% DMF) were incubated with 250 μM 6, 2.5 mM TCEP, 250 μM tris-triazolyl ligand (from a 1.7 mM stock in 1:4 DMSO:tert-butanol), and 2.5 mM CuSO4. Samples were vortexed and allowed to react at rt for 12 h. Prior to electrophoresis, samples were incubated with an equal volume of 100 mM 2-azidoethanol in 2×SDS-PAGE loading buffer for 8 h at rt (to quench unreacted 5 or 6). The quenched samples were boiled for 3 min and loaded onto precast polyacrylamide gels. After electrophoresis, the samples were electroblotted to nitrocellulose membrane. The membrane was blocked using 5% BSA in PBS (pH 7.4, containing 0.05% Tween 20 (blocking buffer A) for 1 h at rt, then incubated with a solution of blocking buffer A containing HRP-α-biotin (1:250,000 dilution, 1 h at rt). The membrane was washed, and detection of membrane-bound anti-biotin-HRP was accomplished by chemiluminescence. Following detection, the membrane was rinsed with PBS (pH 7.4) containing 0.05% Tween (PBS-T) and placed in stripping buffer (15 min at RT) to remove bound anti-biotin Ig. The membrane was thoroughly rinsed with PBS-T and probed for residual anti-biotin signal by chemiluminescence.
The membrane was washed and re-blocked with 5% low-fat dry powdered milk (blocking buffer B) for 1 h at rt. The membrane was then incubated with HRP-α-Ig (1:5000 in blocking buffer B) for 1 h at rt. The membrane was washed again with PBS-T, and detection of membrane bound anti-human Ig was accomplished as for peroxidase-conjugated anti-biotin. Control samples were treated in an identical manner, except that specific reagents were replaced by buffer where appropriate.
FIG. 2. Labeling of azide-modified GlyCAM-Ig with alkyne probes. Purified GlyCAM-Ig was treated with buffer (−), 250 μM 5, or 250 μM 6 alone or in the presence (cat) of CuSO4, TCEP, and a triazolyl ligand, overnight at rt. Reaction mixtures were quenched with 2-azidoethanol and analyzed by Western blot probing with HRP-α-biotin (upper panel). The blot was then stripped and reprobed with HRP-α-Ig (lower panel).

[6] = test system: Jurkat cells

O=C(O)c1ccc(COC2C#CCCCCC2)cc1 (stereo not drawn) [Compound 3]
stability to biological nucleophiles such as thiols ([1]; 120 mM 2-mercaptoethanol for 12 h): stable
stability to mild acid ([1]; 0.5 N HCl for 30 min): stable
stability to base ([1]; 0.8 M NaOMe for 30 min): stable

O=C(O)c1ccc(CC2C#CCCCCC2)cc1 (stereo not drawn) [Compound 3a, 4-Cyclooct-2-ynylmethylbenzoic acid]
k, second-order rate constant for the [3 + 2] cycloaddition [2]: 0.0012 M⁻¹ s⁻¹
k, second-order rate constant for the [3 + 2] cycloaddition [3]: 0.0011 M⁻¹ s⁻¹

O=C(O)c1ccc(CC2(F)C#CCCCCC2)cc1 (stereo not drawn) [Compound 3b, 4-(1-Fluoro-cyclooct-2-ynylmethyl)benzoic acid]
k, second-order rate constant for the [3 + 2] cycloaddition [2]: 0.0042 M⁻¹ s⁻¹
k, second-order rate constant for the [3 + 2] cycloaddition [3]: 0.004 M⁻¹ s⁻¹

O=C(CCCC[C@@H]1SC[C@@H]2NC(=O)N[C@@H]21)NCCCOCCOCCOCCCNC(=O)c1ccc(COC2C#CCCCCC2)cc1 (stereo partly drawn) [Compound 5]
dependence of cell surface reaction on incubation time ([4]; Jurkat +Az, 250 μM probe for various durations at rt): dependent on duration of incubation
effects on cell viability ([4]; Jurkat cells treated with probe): No negative effects
labeling of cells lacking azides ([4]; Jurkat grown without Ac4ManNAz): No detectable labeling
fluorescence of cells displaying azides upon treatment with the cyclooctyne probe ([4]; Jurkat, 25 μM Ac4ManNAz 3 d, various concentrations of probe, rt, FITC-avidin): dose-dependent increase in fluorescence
labeling (biotinylation) of GlyCAM-Ig modified with SiaNAz ([5]; HRP-α-biotin blot): Robust biotinylation
labeling of native GlyCAM-Ig lacking azides ([5]; 250 μM probe overnight, HRP-α-biotin blot): no background labeling

C#CCCC(=O)NCCCOCCOCCOCCCNC(=O)CCCC[C@@H]1SC[C@@H]2NC(=O)N[C@@H]21 [Compound 6]
labeling (biotinylation) of GlyCAM-Ig modified with SiaNAz ([5]; HRP-α-biotin blot): no glycoprotein labeling
labeling of the azide-modified glycoprotein with copper catalysis ([5]; 250 μM probe plus CuSO4, TCEP and a triazolyl ligand): facile labeling
anti-IgG immunoreactivity of labeled azide-modified GlyCAM-Ig ([5]; in the presence of copper, blot reprobed with HRP-α-IgG): consistently diminished

O=C(CCCC[C@@H]1SC[C@@H]2NC(=O)N[C@@H]21)NCCCOCCOCCOCCCNC(=O)COC1CCC#CC(F)(F)CC1 (stereo partly drawn) [DIFO-biotin]
labeling of azide-containing membrane-associated glycans in live cells ([6]; 0 or 25 μM Ac4ManNAz 3 days, probe 1 h, FITC-avidin): selectively label
sensitivity of azide detection compared to a nonfluorinated cyclooctyne or a phosphine capable of Staudinger ligation ([6]; 100 μM probes, 1 h): much higher
